Values joined by “and” are separate entries in the source; they are usually repeats but may differ in a detail not shown here. Equal values may be shown once.
Molecular target: P2Y12 receptor (Homo sapiens, UniProt Q9H244)
Assay: [33P]-2MeS-ADP binding to recombinant human P2Y12 membranes (Assay 3)
Set-up: expressed in transfected cells; host or cells: HEK cells
Conditions: for % Inhibition / inhibition at 10 µM: at highest concentration tested, 10 μM; for IC50 / Ki: HEK cell membranes expressing human P2Y12, competition with 33P 2MeS-ADP
Description: 3. Human P2Y12 Recombinant Cell Membrane Binding Assay with ^33P 2MeS-ADP.
The ability of a test compound to bind to the P2Y12 receptor was evaluated in a recombinant cell membrane binding assay. In this competitive binding assay, the test compound competed against a radiolabelled agonist for binding to the P2Y12 receptor, expressed on the cell membrane. Inhibition of binding of the labeled material was measured and correlated to the amount and potency of the test compound. Data from this assay are presented in Table F. This binding assay is a modification of the procedure in Takasaki, J. et. al, Mol. Pharmacol., 2001, Vol. 60, pg. 432.
HEK cells were transfected with the pDONR201P2Y12 vector and cultured in MEM with GlutaMAX I, Earle's salts, 25 mM HEPES (Gibco # 42360-032) containing 10% dialyzed FBS (Gibco # 26400-044), 100 μM nonessential amino acids (Gibco # 11140-050), 1 mM sodium pyruvate (Gibco # 11360-070), 0.05% geneticin (Gibco #10131-027), 3 μg/mL blasticidin (Fluka brand from Sigma # 15205), and 0.5 μg/mL puromycin (Sigma # P-8833).
Confluent cells were washed once with cold DPBS (Gibco # 14190-136). Fresh DPBS was added and the cells were scraped and centrifuged at 500×g for 5 minutes at 4° C. The cell pellets were resuspended in TEE buffer (25 mM Tris, 5 mM EDTA, 5 mM EGTA) containing 1 protease inhibitor cocktail tablet (Roche # 1 873 580) per 50 mL (called TEE+Complete) and can be flash frozen at this point.
In one embodiment, frozen cell pellets were used to prepare the membranes. In that embodiment, the frozen cell pellets were thawed on ice. In another embodiment, cell pellets may be used without flash freezing before moving on to the next step.
Cell pellets were resuspended in TEE buffer+Complete and homogenized in a glass dounce for 12 strokes. The cell suspension was centrifuged at 500×g for 5 minutes at 4° C. The supernatant was saved and centrifuged at 20,000×g for 20 minutes at 4° C. This supernatant was discarded and the cell pellet resuspended in TEE buffer+Complete and homogenized in a glass dounce for 12 strokes. This suspension was centrifuged at 20,000×g for 20 minutes at 4° C. and the supernatant discarded. The pellet was resuspended in assay buffer (50 mM Tris, 100 mM NaCl, 1 mM EDTA) containing one protease inhibitor cocktail tablet per 50 mL, and can be flash frozen as 1 mL aliquots at this point.
Dry compounds were diluted as 10 mM DMSO stocks and tested in a seven-point, three-fold dilution series run in triplicate beginning at 10 μM, final concentration. A 1 mM DMSO intermediate stock was made in a dilution plate and from this the seven dilutions were made to 5× the final concentration in assay buffer containing 0.02% BSA.
The plates were incubated at room temperature for 1 hour. The reaction was stopped using a cell harvester to transfer the reaction mixture onto GF/B UniFilter plates (Perkin Elmer # 6005177), and washed three times with wash buffer (50 mM Tris), filtering between each wash. The filter plates were dried for approximately 20 minutes in an oven at 50° C. Back seals were adhered to the filter plates and 25 uL of Microscint 20 scintillation fluid (Perkin Elmer # 6013621) were added. The filter plates were sealed, shaken for 30 minutes, and counted on a Top Count. Data were analyzed using a four-parameter curve fit with a fixed minimum and maximum experimentally defined as the average positive and negative controls on each plate, and with a hill slope equal to one.
The table below presents the IC50, Ki, and percent inhibition values for compounds tested in either washed human platelets membrane binding assay (assay #1 above) or recombinant cell membrane binding assay (Assay #3, above). Example number refers to the compound prepared as described in the example noted in the section Working Examples, above. The highest concentration of candidate compound tested is listed for each experimental run presented. […]

Sequence of P2Y12 receptor (Q9H244 whole entry): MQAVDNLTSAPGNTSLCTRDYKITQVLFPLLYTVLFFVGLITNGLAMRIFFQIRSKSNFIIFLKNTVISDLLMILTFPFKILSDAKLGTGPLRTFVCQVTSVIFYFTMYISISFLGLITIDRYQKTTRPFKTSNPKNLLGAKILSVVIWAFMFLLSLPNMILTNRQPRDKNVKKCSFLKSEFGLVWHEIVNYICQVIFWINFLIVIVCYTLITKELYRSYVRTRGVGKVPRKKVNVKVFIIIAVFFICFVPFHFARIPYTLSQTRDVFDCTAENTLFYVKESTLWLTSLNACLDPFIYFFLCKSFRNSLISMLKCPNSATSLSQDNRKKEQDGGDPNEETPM

Row | SMILES | % Inhibition | inhibition at 10 µM [%] | IC50 | Ki
1 | CCc1cc2c(N3CCN(C(=O)Cc4ccccc4)CC3)nc(SCC(=O)Nc3ccccc3)nc2s1 [Example 23, 2-({6-Ethyl-4-[4-(phenylacetyl)piperazin-1-yl]thieno[2,3-d]pyrimidin-2-yl}thio)-N-phenylacetamide] | 75.04% | 64.6 |  | 
2 | CCCOc1ccc(C(=O)N2CCN(c3nc(SCC(=O)OC)nc4sc(CC)cc34)CC2)cc1 [Example 71, Methyl ({6-ethyl-4-[4-(4-propoxybenzoyl)piperazin-1-yl]thieno[2,3-d]pyrimidin-2-yl}thio)acetate] |  | 89.3 | 289 nM | 179 nM
3 | CCc1cc2c(N3CCN(C(=O)Cc4ccccc4)CC3)nc(SCC(O)CO)nc2s1 (centres unmarked) [Example 12, 3-({6-Ethyl-4-[4-(phenylacetyl)piperazin-1-yl]thieno[2,3-d]pyrimidin-2-yl}thio)propane-1,2-diol] | 92.83% | 83.4 | 340 nM and 370 nM | 200 nM and 210 nM
4 | CCc1cc2c(N3CCN(C(=O)Cc4ccccc4)CC3)nc(SC[C@H](N)C(=O)OC)nc2s1 [Example 16, Methyl S-{6-ethyl-4-[4-(phenylacetyl)piperazin-1-yl]thieno[2,3-d]pyrimidin-2-yl}-L-cysteinate] | 87.82% | 88.7 | 270 nM and 360 nM | 150 nM and 210 nM
5 | CCc1cc2c(N3CCN(C(=O)c4cccc(N(C)C)c4)CC3)nc(SCC(=O)OC)nc2s1 [Example 74, Methyl [(4-{4-[3-(dimethylamino)benzoyl]piperazin-1-yl}-6-ethylthieno[2,3-d]pyrimidin-2-yl)thio]acetate] |  | 59 | 5740 nM | 3690 nM
6 | CCc1cc2c(N3CCN(C(=O)c4csc(-c5cccnc5)n4)CC3)nc(SCC(=O)OC)nc2s1 [Example 81, Methyl [(6-ethyl-4-{4-[(2-pyridin-3-yl-1,3-thiazol-4-yl)carbonyl]piperazin-1-yl}thieno[2,3-d]pyrimidin-2-yl)thio]acetate] |  | 76.7 | 1720 nM | 1070 nM
7 | CCc1cc2c(N3CCN(C(=O)c4cc(N(C)C)nc(N(C)C)n4)CC3)nc(SCC(=O)OC)nc2s1 [Example 72, Methyl {[4-(4-{[2,6-bis(dimethylamino)pyrimidin-4-yl]carbonyl}piperazin-1-yl)-6-ethylthieno[2,3-d]pyrimidin-2-yl]thio}acetate] |  | 88.7 | 681 nM | 423 nM
8 | CCc1cc2c(N3CCN(C(=O)Cc4ccccc4)CC3)nc(SCC(=O)O)nc2s1 [Example 83, ({6-ethyl-4-[4-(phenylacetyl)piperazin-1-yl]thieno[2,3-d]pyrimidin-2-yl}thio)acetic acid] | 90.75% and 91.85% and 86.17% | 92 | 230 nM and 940 nM and 430 nM and 470 nM | 127 nM and 540 nM and 240 nM and 270 nM
9 | CCc1cc2c(N3CCN(C(=O)Cc4ccccc4)CC3)nc(S(=O)(=O)CC(=O)OC)nc2s1 [Example 8, Methyl ({6-ethyl-4-[4-(phenylacetyl)piperazin-1-yl]thieno[2,3-d]pyrimidin-2-yl}sulfonyl)acetate] | 81.44% | 81.3 | 1200 nM | 720 nM and 680 nM
10 | CCc1cc2c(N3CCN(C(=O)CC(=O)OC)CC3)nc(SCC(=O)OC)nc2s1 [Example 44, Methyl 3-(4-{6-ethyl-2-[(2-methoxy-2-oxoethyl)thio]thieno[2,3-d]pyrimidin-4-yl}piperazin-1-yl)-3-oxopropanoate] |  | 63.6 | 4030 nM | 2690 nM
11 | CCc1cc2c(N3CCN(C(=O)Cc4ccccc4)CC3)nc(SC(C)C(C)=O)nc2s1 (centres unmarked) [Example 14, 3-({6-Ethyl-4-[4-(phenylacetyl)piperazin-1-yl]thieno[2,3-d]pyrimidin-2-yl}thio)butan-2-one] | 83.72% | 89.9 | 290 nM and 330 nM | 160 nM and 200 nM
12 | CCc1cc2c(N3CCN(C(=O)c4ccc(C(=O)OC)cc4)CC3)nc(SCC(=O)OC)nc2s1 [Example 80, Methyl 4-[(4-{6-ethyl-2-[(2-methoxy-2-oxoethyl)thio]thieno[2,3-d]pyrimidin-4-yl}piperazin-1-yl)carbonyl]benzoate] |  | 60 | 3780 nM | 2450 nM
13 | CCc1cc2c(N3CCN(C(=O)c4cc(F)cc(F)c4)CC3)nc(SCC(=O)OC)nc2s1 [Example 51, Methyl ({4-[4-(3,5-difluorobenzoyl)piperazin-1-yl]-6-ethylthieno[2,3-d]pyrimidin-2-yl}thio)acetate] |  | 74.2 | 1580 nM | 1050 nM
14 | CCc1cc2c(N3CCN(C(=O)c4csc(-c5ccccc5)n4)CC3)nc(SCC(=O)OC)nc2s1 [Example 69, Methyl [(6-ethyl-4-{4-[(2-phenyl-1,3-thiazol-4-yl)carbonyl]piperazin-1-yl}thieno[2,3-d]pyrimidin-2-yl)thio]acetate] |  | 56.8 | 87.8 nM | 53 nM
15 | CCc1cc2c(N3CCN(C(=O)Cc4ccccc4)CC3)nc(SCCc3ccncc3)nc2s1 [Example 26, 6-Ethyl-4-[4-(phenylacetyl)piperazin-1-yl]-2-[(2-pyridin-4-ylethyl)thio]thieno[2,3-d]pyrimidine] | 88.94% | 88.7 | 800 nM | 460 nM and 430 nM
16 | CCc1cc2c(N3CCN(C(=O)c4ccc(-c5ccccc5)cc4)CC3)nc(SCC(=O)OC)nc2s1 [Example 22, Methyl ({4-[4-(1,1′-biphenyl-4-ylcarbonyl)piperazin-1-yl]-6-ethylthieno[2,3-d]pyrimidin-2-yl}thio)acetate] | 90.70% | 92.7 | 43 nM and 51 nM | 25 nM and 28 nM
17 | CCc1cc2c(N3CCN(C(=O)c4ccc(-c5ccccc5)cc4)CC3)nc(SCC(O)CO)nc2s1 (centres unmarked) [Example 28, 3-({4-[4-(1,1′-Biphenyl-4-ylcarbonyl)piperazin-1-yl]-6-ethylthieno[2,3-d]pyrimidin-2-yl}thio)propane-1,2-diol] |  | 94.3 | 38 nM | 22 nM
18 | CCc1cc2c(N3CCN(C(=O)Cc4ccccc4)CC3)nc(SCC(C)O)nc2s1 (centres unmarked) [Example 17, 1-({6-Ethyl-4-[4-(phenylacetyl)piperazin-1-yl]thieno[2,3-d]pyrimidin-2-yl}thio)propan-2-ol] | 87.05% | 90.6 | 500 nM and 530 nM | 290 nM and 310 nM
19 | CCc1cc2c(N3CCN(C(=O)c4ccc(OC(F)(F)F)cc4)CC3)nc(SCC(=O)OC)nc2s1 [Example 49, Methyl [(6-ethyl-4-{4-[4-(trifluoromethoxy)benzoyl]piperazin-1-yl}thieno[2,3-d]pyrimidin-2-yl)thio]acetate] |  | 56.8 | 5520 nM | 3680 nM
20 | CCc1cc2c(N3CCN(C(=O)Cc4ccccc4)CC3)nc(SCCN(C)C)nc2s1 [Example 88, N-[2-({6-ethyl-4-[4-(phenylacetyl)piperazin-1-yl]thieno[2,3-d]pyrimidin-2-yl}thio)ethyl]-N,N-dimethylamine] | 80.30% and 84.54% and 89.14% and 82.41% | 94.1 | 1680 nM and 1480 nM and 640 nM and 370 nM and 1200 nM | 913 nM and 848 nM and 370 nM and 210 nM and 700 nM
21 | CCc1cc2c(N3CCN(C(=O)c4cc(F)ccc4F)CC3)nc(SCC(=O)OC)nc2s1 [Example 53, Methyl ({4-[4-(2,5-difluorobenzoyl)piperazin-1-yl]-6-ethylthieno[2,3-d]pyrimidin-2-yl}thio)acetate] |  | 68.8 | 2330 nM | 1560 nM

Source: patent US20080176857A1, “4-Piperazinnylthieno[2,3-d]Pyrimidine Compounds as Platelet Aggregation Inhibitors” (priority 2005, published 2008)
